This passage reports IC50 results from patent US20110105509A1 (Wyeth, LLC, priority 2009, published 2011).

Some results are limits rather than exact numbers.

This test deals with T1, CRTH2 (Homo sapiens, UniProt Q9Y5Y4).
T1 construct: expressed in transfected cells; host or cells: CHO cells
T1 sequence (Q9Y5Y4 1-395): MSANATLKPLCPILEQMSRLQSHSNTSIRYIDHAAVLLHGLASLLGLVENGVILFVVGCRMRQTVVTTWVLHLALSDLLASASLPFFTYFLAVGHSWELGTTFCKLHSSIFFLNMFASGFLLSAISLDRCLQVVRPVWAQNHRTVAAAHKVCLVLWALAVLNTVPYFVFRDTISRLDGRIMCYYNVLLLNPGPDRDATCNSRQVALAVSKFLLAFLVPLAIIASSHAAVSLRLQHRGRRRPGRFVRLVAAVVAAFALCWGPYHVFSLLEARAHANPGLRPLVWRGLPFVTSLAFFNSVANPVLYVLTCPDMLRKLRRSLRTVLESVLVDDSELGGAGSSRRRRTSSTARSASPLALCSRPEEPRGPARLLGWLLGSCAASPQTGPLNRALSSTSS
The test is described as follows: FRET based competitive immunoassay (cAMP) in CRTH2 expressing CHO cells. In kind it is cell-based. The note with it: CRTH2 expressing CHO cells incubated with forskolin and PGD2; Eu3+ cryptate-labeled anti-cAMP and d2-labeled cAMP. Here is the method:
FRET Assay: To evaluate potency compounds were tested in a FRET based competitive immunoassay in which CRTH2 expressing CHO cells were incubated in the presence of forskolin and PGD2 along with Eu3+ cryptate-labeled anti-cAMP and d2-labeled cAMP.
Molecule `Cc1c(-c2ccc(=O)n(Cc3cccnc3)c2)c2cc(F)ccc2n1CC(=O)O` [Example 315, 2-(5-fluoro-2-methyl-3-(6-oxo-1-(pyridin-3-ylmethyl)-1,6-dihydropyridin-3-yl)-1H-indol-1-yl)acetic acid] gave an IC50 of 32 nM.
The figure for `Cc1c(-c2ccc(=O)n(Cc3cccc(F)c3F)c2)c2cc(Cl)ccc2n1CC(=O)O` [Example 292, 2-(5-Chloro-3-(1-(2,3-difluorobenzyl)-6-oxo-1,6-dihydropyridin-3-yl)-2-methyl-1H-indol-1-yl)acetic acid] is 11 nM; for `Cc1c(-c2nn(C(C)C)c(=O)c3ccccc23)c2ccccc2n1CC(=O)O` [Example 326, [3-(3-isopropyl-4-oxo-3,4-dihydrophthalazin-1-yl)-2-methyl-1H-indol-1-yl]acetic acid] it is 61 nM.
The value for `Cc1c(-c2cn(C(C)C)c(=O)c3ccccc23)c2ccccc2n1CC(=O)O` [Example 252, 2-(3-(2-isopropyl-1-oxo-1,2-dihydroisoquinolin-4-yl)-2-methyl-1H-indol-1-yl)acetic acid] was 12 nM; that for `Cc1c(Cc2ccc(=O)n(Cc3cc(F)cc(F)c3)c2)c2ccccc2n1CC(=O)O` [Example 35, 2-(3-((1-(3,5-Difluorobenzyl)-6-oxo-1,6-dihydropyridin-3-yl)methyl)-2-methyl-1H-indol-1-yl)acetic acid] was 65 nM; that for `Cc1c(-c2ccc(=O)n(Cc3ccc(Cl)cc3)n2)c2cc(Cl)ccc2n1CC(=O)O` [Example 9, 2-(5-Chloro-3-(1-(4-chlorobenzyl)-6-oxo-1,6-dihydropyridazin-3-yl)-2-methyl-1H-indol-1-yl)acetic acid] was 21 nM.
Regarding `Cc1c(Cc2ccc(=O)n(Cc3cccnc3)n2)c2cc(F)ccc2n1CC(=O)O` [Example 195, 2-(5-fluoro-2-methyl-3-((6-oxo-1-(pyridin-3-ylmethyl)-1,6-dihydropyridazin-3-yl)methyl)-1H-indol-1-yl)acetic acid], the 50% inhibitory concentration (IC50) stood at 12 nM.
As for `Cc1c(-c2ccc(=O)n(Cc3ccc(F)cc3F)n2)c2cc(F)ccc2n1CC(=O)O` [Example 71, 2-(3-(1-(2,4-difluorobenzyl)-6-oxo-1,6-dihydropyridazin-3-yl)-5-fluoro-2-methyl-1H-indol-1-yl)acetic acid], the IC50 is 17 nM.
The figure for `Cc1c(CC2=NN(CCCC(F)(F)F)C(=O)CC2)c2cc(F)ccc2n1CC(=O)O` [Example 58, 2-(5-Fluoro-2-methyl-3-((6-oxo-1-(4,4,4-trifluorobutyl)-1,4,5,6-tetrahydro-pyridazin-3-yl)methyl)-1H-indol-1-yl)acetic acid] is 18 nM; for `Cc1c(-c2ccc(=O)n(Cc3ccccc3)n2)c2cc(F)ccc2n1Cc1ccccc1` [Example 262c, 6-(1-benzyl-5-fluoro-2-methyl-1H-indol-3-yl)-2-benzylpyridazin-3(2H)-one] it is over 10000 nM.
As for `Cc1c(-c2nn(Cc3ccccc3)c(=O)c3ccccc23)c2cc(F)cc(Cl)c2n1CC(=O)O` [Example 243, 2-(3-(3-benzyl-4-oxo-3,4-dihydrophthalazin-1-yl)-7-chloro-5-fluoro-2-methyl-1H-indol-1-yl)acetic acid], the half-maximal inhibitory concentration (IC50) was determined as 33 nM.
Take `Cc1c(-c2ccc(=O)n(C(C)C)n2)c2cc(F)cc(Cl)c2n1CC(=O)O` [Example 232, 2-(7-chloro-5-fluoro-3-(1-isopropyl-6-oxo-1,6-dihydropyridazin-3-yl)-2-methyl-1H-indol-1-yl)acetic acid]: the IC50 worked out at 1080 nM.
The figure for `Cc1c(Cc2ccc(=O)n(CC(F)(F)F)c2)c2cc(F)ccc2n1CC(=O)O` [Example 46] is 55 nM; for `Cc1c(-c2nn(Cc3cccc(F)c3F)c(=O)c3ccccc23)c2cc(Cl)ccc2n1CC(=O)O` [Example 97, 2-(5-chloro-3-(3-(2,3-difluorobenzyl)-4-oxo-3,4-dihydrophthalazin-1-yl)-2-methyl-1H-indol-1-yl)acetic acid] it is 7 nM.
The figure for `Cc1c(-c2nn(Cc3ccc(S(C)(=O)=O)cc3)c(=O)c3ccccc23)c2cc(Cl)ccc2n1CC(=O)O` [Example 332, (5-chloro-2-methyl-3-{3-[4-(methylsulfonyl)benzyl]-4-oxo-3,4-dihydro-phthalazin-1-yl}-1H-indol-1-yl)acetic acid] is 26 nM.
The value for `Cc1c(-c2cn(Cc3ccccc3)c(=O)c3ccccc23)c2cc(F)ccc2n1CC(=O)O` [Example 248, 2-(3-(2-benzyl-1-oxo-1,2-dihydroisoquinolin-4-yl)-5-fluoro-2-methyl-1H-indol-1-yl)acetic acid] was 15 nM; that for `Cc1c(-c2nn(Cc3ccc(Cl)c(F)c3)c(=O)c3ccccc23)c2cc(F)ccc2n1CC(=O)O` [Example 5, 2-(3-(3-(4-Chloro-3-fluorobenzyl)-4-oxo-3,4-dihydrophthalazin-1-yl)-5-fluoro-2-methyl-1H-indol-1-yl)acetic acid] was 10 nM.
With `Cc1c(-c2cn(C(C)C)c(=O)c3ccccc23)c2cc(F)ccc2n1CC(=O)O` [Example 249, 2-(5-fluoro-3-(2-isopropyl-1-oxo-1,2-dihydroisoquinolin-4-yl)-2-methyl-1H-indol-1-yl)acetic acid], the IC50 turned out to be 5 nM.
The value for `Cc1c(-c2nn(CCc3ccccc3)c(=O)c3ccccc23)c2ccccc2n1CC(=O)O` [Example 225, 2-(2-methyl-3-(4-oxo-3-phenethyl-3,4-dihydrophthalazin-1-yl)-1H-indol-1-yl)acetic acid] was 27 nM.
The figure for `Cc1c(-c2ccc(=O)n(CC(F)(F)F)c2)c2cc(Cl)ccc2n1CC(=O)O` [Example 281, 2-(5-chloro-2-methyl-3-(6-oxo-1-(2,2,2-trifluoroethyl)-1,6-dihydropyridin-3-yl)-1H-indol-1-yl)acetic acid] is 240 nM; for `Cc1c(-c2ccc(=O)n(Cc3cc(F)c(F)cc3F)n2)c2cc(F)ccc2n1CC(=O)O` [Example 70, 2-(5-fluoro-2-methyl-3-(6-oxo-1-(2,4,5-trifluorobenzyl)-1,6-dihydro-pyridazin-3-yl)-1H-indol-1-yl)acetic acid] it is 16 nM.
`Cc1c(-c2ccc(=O)n(Cc3cccc(C(F)(F)F)c3)n2)c2cc(Cl)ccc2n1CC(=O)O` [Example 212, 2-(5-chloro-2-methyl-3-(6-oxo-1-(3-(trifluoromethyl)benzyl)-1,6-dihydropyridazin-3-yl)-1H-indol-1-yl)acetic acid] returned an IC50 of 33 nM.
Regarding `Cc1c(-c2ccc(=O)n(Cc3cc(F)c(F)cc3F)c2)c2cc(F)ccc2n1CC(=O)O` [Example 271, 2-(5-Fluoro-2-methyl-3-(6-oxo-1-(2,4,5-trifluorobenzyl)-1,6-dihydropyridin-3-yl)-1H-indol-1-yl)acetic acid], the IC50 was determined as 12 nM.
The figure for `Cc1c(-c2nn(Cc3ccc4ccccc4n3)c(=O)c3ccccc23)c2ccccc2n1CC(=O)O` [Example 169, 2-(2-methyl-3-(4-oxo-3-(quinolin-2-ylmethyl)-3,4-dihydrophthalazin-1-yl)-1H-indol-1-yl)acetic acid] is 14 nM; for `Cc1c(-c2ccc(=O)n(Cc3ccccc3)n2)c2cccc(Br)c2n1CC(=O)O` [Example 246, 2-(3-(1-benzyl-6-oxo-1,6-dihydropyridazin-3-yl)-7-bromo-2-methyl-1H-indol-1-yl)-acetic acid] it is over 2000 nM; for `Cc1c(Cc2ccc(=O)n(CC(O)(C(F)(F)F)C(F)(F)F)n2)c2cc(F)ccc2n1CC(=O)O` [Example 201, [5-fluoro-2-methyl-3-({6-oxo-1-[3,3,3-trifluoro-2-hydroxy-2-(trifluoromethyl)-propyl]-1,6-dihydro-pyridazin-3-yl}methyl)-1H-indol-1-yl]acetic acid] it is 22 nM.
As to `Cc1c(-c2ccc(=O)n(Cc3cccc(F)c3F)c2)c2cc(F)ccc2n1[C@H](C)C(=O)O` [Example 306b, (R)-2-(3-(1-(2,3-difluorobenzyl)-6-oxo-1,6-dihydropyridin-3-yl)-5-fluoro-2-methyl-1H-indol-1-yl)propanoic acid], the IC50 was over 2000 nM.
The value for `Cc1ccccc1S(=O)(=O)NC(=O)Cn1c(C)c(-c2ccc(=O)n(Cc3ccccc3)c2)c2cc(F)ccc21` [Example 314, 2-(3-(1-Benzyl-6-oxo-1,6-dihydropyridin-3-yl)-5-fluoro-2-methyl-1H-indol-1-yl)-N-(o-tolyl-sulfonyl)acetamide] was over 1000 nM; that for `Cc1c(-c2ccc(=O)n(Cc3c(F)cccc3F)c2)c2cc(Cl)ccc2n1CC(=O)O` [Example 291, 2-(5-chloro-3-(1-(2,6-difluorobenzyl)-6-oxo-1,6-dihydropyridin-3-yl)-2-methyl-1H-indol-1-yl)acetic acid] was 8 nM; that for `Cc1c(-c2ccc(=O)n(CC(F)(F)F)n2)c2ccccc2n1CC(=O)O` [Example 185, 2-(2-methyl-3-(6-oxo-1-(2,2,2-trifluoroethyl)-1,6-dihydropyridazin-3-yl)-1H-indol-1-yl)acetic acid] was over 1000 nM.
The value for `Cc1cc(Cn2nc(-c3c(C)n(CC(=O)O)c4ccc(F)cc34)c3ccccc3c2=O)c2ccccc2n1` [Example 119, 2-(5-fluoro-2-methyl-3-(3-((2-methylquinolin-4-yl)methyl)-4-oxo-3,4-dihydro-phthalazin-1-yl)-1H-indol-1-yl)acetic acid] was 17 nM.

By IC50 is commonly meant the point on the concentration scale where inhibition reaches its midpoint.
